Data taken from patent US11077097B2, “Use of aromatic ring drug in inhibiting key transcription factor of malignant melanoma” (SHANGHAI INSTITUTE OF ORGANIC CHEMISTRY, CHINESE ACADEMY OF …, priority 2017, dated 2021).

Key:
[1] = biological target: T1, MITF dimer (Homo sapiens, UniProt O75030); experiment: AlphaScreen high-throughput screening model MIDAS (MITF Dependent Alpha-Screen), MITF dimer formation; type: binding; conditions: read-out: IC50 of inhibiting formation of MITF dimer
T1 sequence (O75030 1-526): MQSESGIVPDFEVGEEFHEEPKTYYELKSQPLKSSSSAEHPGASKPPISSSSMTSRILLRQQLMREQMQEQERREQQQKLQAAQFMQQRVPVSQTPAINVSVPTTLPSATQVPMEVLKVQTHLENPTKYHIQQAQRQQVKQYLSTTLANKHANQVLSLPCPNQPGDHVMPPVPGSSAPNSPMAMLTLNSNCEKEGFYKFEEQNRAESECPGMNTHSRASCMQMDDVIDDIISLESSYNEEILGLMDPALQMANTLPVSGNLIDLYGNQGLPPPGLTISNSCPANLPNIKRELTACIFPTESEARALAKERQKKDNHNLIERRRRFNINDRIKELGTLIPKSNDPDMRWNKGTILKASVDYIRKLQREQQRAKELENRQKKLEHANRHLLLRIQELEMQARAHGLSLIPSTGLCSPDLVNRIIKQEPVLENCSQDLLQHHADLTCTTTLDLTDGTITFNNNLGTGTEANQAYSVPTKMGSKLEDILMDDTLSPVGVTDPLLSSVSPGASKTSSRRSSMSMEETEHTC
From the text: In the AlphaScreen high-throughput screening model MIDAS (MITF Dependent Alpha-Screen), MITF was labeled with a Biotin tag recognized by Alpha donor beads and a His tag recognized by Alpha receptor beads, respectively. When MITF formed a dimer, Alpha Donor beads and Alpha Receptor beads were pulled close to each other and detected by 680 nm excitation light and 520-620 nm emission light, thereby monitoring the formation of MITF dimer.

[2] = biological target: LysRS-p38 interaction (Homo sapiens, UniProt Q13155+Q15046); experiment: AlphaScreen control test, LysRS-p38 interaction; type: binding
[3] = tested on: MITF landmark downstream genes-TYR and TRPM1; experiment: Fluorescent quantitative RT-PCR of MITF downstream genes in B16F10 cells; type: cell-based; conditions: Mus musculus, B16-F10, B16F10 cell line, read-out: IC50 of inhibiting mRNA levels of TYR and TRPM1
Method: TT-012 was incubated with melanoma cell B16F10 cell line, mRNA was extracted and reverse transcripted, and the transcription of MITF landmark downstream genes-TYR (tyrosinase) and TRPM1 (transient receptor potential cation channel M1) were detected by fluorescent quantitative PCR.

[4] = tested on: B16F10 cells; experiment: MTT cell activity, MITF-dependent melanoma cell line B16F10; type: cell-based; conditions: Mus musculus, B16-F10, MITF-dependent and highly expressed, read-out: IC50 of inhibiting growth of B16F10 cells
Method: (§1) The active TT012 was incubated with MITF-dependent and highly expressed melanoma cell line B16F10, the melanoma cell line A375 with low expression of MITF, and control cell line Hela, respectively, and cell activity was detected by MTT experiment.

[5] = tested on: A375 cells; experiment: MTT cell activity, melanoma cell line A375 with low expression of MITF; type: cell-based
Method: as §1

[6] = tested on: Hela cells; experiment: MTT cell activity, control cell line Hela; type: cell-based
Method: as §1

[7] = tested on: melanin formation; experiment: Forskolin-induced melanin production; type: cell-based
From the text: MITF regulated the transcription and expression of melanin synthase TYR, TYRP1, and is the main regulatory factor of melanin formation. Foskolin, a small molecule compound, could regulate pathway, promote the expression of MITF, and promote melanin production by activating MSH-cAMP-CREB.

Sequence of LysRS-p38 interaction (Q15046 whole entry): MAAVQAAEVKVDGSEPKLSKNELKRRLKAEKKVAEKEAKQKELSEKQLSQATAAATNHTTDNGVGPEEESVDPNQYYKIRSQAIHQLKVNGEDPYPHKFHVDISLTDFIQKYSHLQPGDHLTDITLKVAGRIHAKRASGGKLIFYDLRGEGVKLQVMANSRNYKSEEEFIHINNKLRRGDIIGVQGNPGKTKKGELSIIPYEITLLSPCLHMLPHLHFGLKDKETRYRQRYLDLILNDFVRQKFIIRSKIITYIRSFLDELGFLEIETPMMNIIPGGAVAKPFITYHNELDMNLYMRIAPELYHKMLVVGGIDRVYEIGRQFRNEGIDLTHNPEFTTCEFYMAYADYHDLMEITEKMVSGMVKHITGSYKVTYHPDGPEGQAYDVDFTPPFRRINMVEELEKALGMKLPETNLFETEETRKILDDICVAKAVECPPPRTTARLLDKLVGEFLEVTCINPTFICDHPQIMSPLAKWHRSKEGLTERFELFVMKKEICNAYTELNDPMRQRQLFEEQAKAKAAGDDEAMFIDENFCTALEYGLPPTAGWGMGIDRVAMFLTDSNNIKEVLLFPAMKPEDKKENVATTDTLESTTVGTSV
Sequence of LysRS-p38 interaction (Q13155 whole entry): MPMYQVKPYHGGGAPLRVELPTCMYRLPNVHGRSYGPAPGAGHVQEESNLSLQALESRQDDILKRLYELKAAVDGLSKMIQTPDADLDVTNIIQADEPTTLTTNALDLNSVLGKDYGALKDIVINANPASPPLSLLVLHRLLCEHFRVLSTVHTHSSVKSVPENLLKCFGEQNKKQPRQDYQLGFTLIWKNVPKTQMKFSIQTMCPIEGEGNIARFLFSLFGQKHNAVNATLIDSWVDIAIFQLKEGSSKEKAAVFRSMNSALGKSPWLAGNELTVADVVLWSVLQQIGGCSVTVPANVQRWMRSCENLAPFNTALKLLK

Structure (SMILES): O=C(/C=C/c1ccco1)Nc1cccc(NC(=O)/C=C/c2ccco2)n1 [TT-012]
- IC50 [1]: 10 nM
- effect on AlphaScreen signal of LysRS-p38 interaction [2]: not affect
- IC50 [3]: 2000 nM
- IC50 [4]: 300 nM
- killing effect on A375 cells [5]: no killing effects
- killing effect on control cells HELA [6]: no killing effects
- inhibition of melanin formation [7]: effectively inhibit
